According to PubChem BioAssay (NCI):
“And” between values parts separate entries of the source, which are not always exact repeats. Equal values may be shown once.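 Interpolation was linear, between the two tested concentrations surrounding the appropriate level; five concentrations were tested over 48 hours in 96-well plates. GI50: concentration for 50% inhibition of growth. TGI: concentration producing complete growth inhibition.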

Key:
Assay in all cases: DTP human tumour cell line panel, 48 h
RPMI-8226 leukemia = tested on: RPMI-8226 leukemia
KM12 colon = tested on: KM12 colon
MOLT-4 leukemia = tested on: MOLT-4 leukemia
DMS 273 small cell lung = tested on: DMS 273 small cell lung
HCC-2998 colon = tested on: HCC-2998 colon
NCI-H460 lung = tested on: NCI-H460 lung
A498 renal = tested on: A498 renal
RXF 393 renal = tested on: RXF 393 renal
DLD-1 colon = tested on: DLD-1 colon
T-47D breast = tested on: T-47D breast

SMILES | TGI (RPMI-8226 leukemia) | TGI (KM12 colon) | TGI (MOLT-4 leukemia) | TGI (DMS 273 small cell lung) [µM] | TGI (HCC-2998 colon) | TGI (NCI-H460 lung) | TGI (A498 renal) | TGI (RXF 393 renal) | TGI (DLD-1 colon) [µM] | GI50 (T-47D breast) [µM] | TGI (T-47D breast) | GI50 (RPMI-8226 leukemia) | GI50 (KM12 colon) | GI50 (MOLT-4 leukemia) | GI50 (HCC-2998 colon) [µM] | GI50 (NCI-H460 lung) | GI50 (A498 renal) [µM] | GI50 (RXF 393 renal) [µM] | GI50 (DMS 273 small cell lung) [µM] | GI50 (DLD-1 colon) [µM]
O=S(=O)(N/N=C/c1ccc(/C=N/NS(=O)(=O)c2ccccc2)cc1)c1ccccc1 | > 100 µM | > 100 µM | 60.9 µM | > 100 | > 100 µM | > 100 µM | > 100 µM | 77.4 µM | – | – | – | – | – | – | – | – | – | – | – | –
CCOC(=O)NC(=O)c1cn(CC(=O)NCC(=O)NCC(=O)NCCCN2CCN(CCCNC(=O)CNC(=O)CNC(=O)Cn3cc(C(=O)NC(=O)OCC)c(=O)[nH]c3=O)CC2)c(=O)[nH]c1=O | – | > 100 µM | > 100 µM | > 100 | > 100 µM | > 100 µM | > 100 µM | – | > 100 | – | – | – | – | – | – | – | – | – | – | –
O=C1c2ccccc2-c2cccc3ccc(Cc4ccc5ccccc5c4)c1c23 | > 100 µM | > 100 µM | > 100 µM | > 100 | > 100 µM | > 100 µM | – | > 100 µM | > 100 | – | – | – | – | – | – | – | – | – | – | –
CC[C@@H]1OC2(C)CC(S(=O)(=O)c3ccccc3O)CC1O2 (stereo partly specified) | > 100 µM | > 100 µM | > 100 µM | > 100 | > 100 µM | > 100 µM | – | > 100 µM | > 100 | – | – | – | – | – | – | – | – | – | – | –
CC1=C2[C@@H](CC1)[C@]1(C)O[C@@](C3CCCCC3)(C[C@H]1OC(=O)CO)[C@H]2OC(=O)/C=C/c1ccccc1 | 33.2 µM | 24.7 µM | 17.4 µM | – | 18.4 µM | 17.8 µM | 0.0731 µM | 0.483 µM | – | 4.69 | 17.5 µM | 9.51 µM | 8.34 µM | 5.82 µM | 6.3 | 6.35 µM | 0.0208 | 0.029 | – | –
NNC(=O)/C(=C/c1ccc(Cl)c(Cl)c1)NC(=O)c1ccccc1 | > 100 µM | > 100 µM | > 100 µM | – | > 100 µM | > 100 µM | – | > 100 µM | > 100 | – | – | – | – | – | – | – | – | – | – | –
Cc1nc2sc(C(=O)Nc3cccc(Cl)c3C)c(N)c2cc1C(=O)/C=C/c1ccccc1 | 0.465 µM | 1.5 µM | > 50 µM | – | 1.57 µM | 1.74 µM | 1.4 µM | 0.801 µM | – | 0.767 | 2.4 µM | 0.14 µM | 0.479 µM | 0.76 µM | 0.827 | 0.424 µM | 0.298 | 0.206 | – | –
COc1ccc(-c2onc(-c3ccc([N+](=O)[O-])cc3)c2C2=NCCN2)cc1 | > 100 µM | > 100 µM | > 100 µM | – | > 100 µM | > 100 µM | – | > 100 µM | > 100 | – | – | – | – | – | – | – | – | – | – | –
CC(=O)c1c(C)[nH]c(-c2nc3ccc(N4CCN(C)CC4)cc3[nH]2)c1-c1ccc(OCC2CCOCC2)cc1 | 1.42 µM | 14.6 µM | 20.6 µM | – | 3.31 µM | 19.4 µM | 2.2 µM | 2.83 µM | – | 0.445 | 20.6 µM | 0.251 µM | 0.924 µM | 1.63 µM | 0.766 | 2.39 µM | 0.345 | 0.696 | – | –
CSc1ccc(C2=NN(C(=O)c3ccc(F)cc3)C(c3ccc(F)cc3)C2)cc1 (stereo unspecified) | 4.2 µM | 5.83 µM | 38.2 µM | – | 25.6 µM | 28.7 µM | 34.9 µM | 20 µM | – | 12.2 | 31.2 µM | 1.68 µM | 2.2 µM | 12.3 µM | 12.3 | 13 µM | 19.6 | 4.8 | – | –
O=Cc1ccc(-c2cc(C=O)c(-c3cccs3)[nH]2)s1 | 75 µM and > 100 µM | 75 µM and > 100 µM | 75 µM and > 100 µM | – | 56.6 µM and > 100 µM | 75 µM and > 100 µM | 5.73 µM and 4.49 µM | 75 µM and > 100 µM | – | 18.2 | 49.6 µM and > 100 µM | 79.1 µM | 50.8 µM | 81 µM | 20.1 | 48.2 µM | – | 23.3 | – | –
COc1ccccc1N1C(=O)/C(=C/c2ccc(N(CCC#N)CCC#N)cc2C)N=C1c1cc([N+](=O)[O-])ccc1Cl | > 100 µM | > 100 µM | > 100 µM | > 100 | > 100 µM | > 100 µM | > 100 µM | – | – | – | – | – | – | – | – | – | – | – | – | –
COC(=O)c1s/c(=N\C(=S)N(C)C)n(-c2ccccc2)c1C(=O)OC | > 100 µM | > 100 µM | > 100 µM | > 100 | > 100 µM | > 100 µM | > 100 µM | > 100 µM | – | – | – | – | – | – | – | – | – | – | – | –
CCCCc1c2c(nc3c1CCC/C3=C\c1ccccc1)C(=O)CCC2 | 45.4 µM | 51.8 µM | 43.4 µM | 65.6 | 35.2 µM | > 100 µM | 61.4 µM | 33 µM | – | – | – | – | – | – | – | – | – | – | – | –
CC(=O)Nc1ccc(C(=O)NN2C(=O)C(Cl)C2c2ccc(Cl)cc2)cc1 (stereo unspecified) | > 100 µM | > 100 µM | > 100 µM | – | > 100 µM | > 100 µM | – | – | > 100 | – | > 100 µM | – | – | – | – | – | – | – | – | –
Nc1c(C(=O)c2ccc(Cl)cc2)sc(Nc2ccccc2)c1-c1nc2ccccc2s1 | > 100 µM | > 100 µM | > 89.6 µM | – | > 100 µM | > 100 µM | 19.1 µM | 33.1 µM | – | 1.46 | > 100 µM | 6.05 µM | 0.812 µM | 12.3 µM | > 100 | 0.776 µM | 3.67 | 10.5 | – | –
CN[C@@H](C)C(=O)N[C@H](C(=O)N1CCC[C@H]1C(=O)N[C@H]1c2ccccc2C[C@H]1OCC#CC#CCO[C@@H]1Cc2ccccc2[C@@H]1NC(=O)[C@@H]1CCCN1C(=O)[C@@H](NC(=O)[C@H](C)NC)C1CCCCC1)C1CCCCC1 | 3.9 µM | 7.96 µM | 4.57 µM | – | 4.45 µM | 6.77 µM | 25.1 µM | – | – | 1.81 | 4.39 µM | 1.44 µM | 2.66 µM | 1.92 µM | 1.77 | 2.66 µM | 8.8 | < 0.0371 | – | –
Cc1ccccc1NC(=O)N/C(N)=N/c1nc(-c2cccc([N+](=O)[O-])c2)cs1 | > 100 µM | > 100 µM | > 100 µM | – | > 100 µM | 23.1 µM | 7.69 µM | 4.33 µM | – | 3.2 | > 100 µM | 3.09 µM | 2.49 µM | 3.39 µM | 3.16 | 3.18 µM | 2.39 | 1.78 | – | –
CCNC(=O)CCN(C(=O)O)S(=O)(=O)c1ccc(NC(=O)c2ccccc2)cc1 | > 100 µM | > 100 µM | > 100 µM | 41.3 | > 100 µM | > 100 µM | > 100 µM | – | > 100 | – | – | – | – | – | – | – | – | – | – | –
Cc1cc(I)cc(CN(C)CCCN2CCSCC2)c1O | 44.4 µM | > 100 µM | 41.6 µM | – | 32.5 µM | 40.2 µM | 51.3 µM | 39 µM | – | 31.3 | > 100 µM | 18.8 µM | 37.2 µM | 19.4 µM | 17.5 | 17.8 µM | 26.4 | 17.2 | – | –
CC12OC(c3ccccc3)=CC(c3ccc(Cl)cc3)=C1C(c1ccccc1)=CC2=O (stereo unspecified) | 47.2 µM | > 100 µM | 75.6 µM | – | > 100 µM | > 100 µM | > 100 µM | > 100 µM | – | 35.8 | > 100 µM | 17.3 µM | 71.8 µM | 20.6 µM | 75.2 | 34.8 µM | > 100 | 19.1 | – | –
CCCCOC(=O)NC(=O)c1cn(CCCOC(=O)CCCCCCCCC(=O)OCCCn2cc(C(=O)NC(=O)OCCCC)c(=O)[nH]c2=O)c(=O)[nH]c1=O | > 100 µM | > 100 µM | > 100 µM | – | > 100 µM | > 100 µM | – | > 100 µM | > 100 | – | – | – | – | – | – | – | – | – | – | –
CCOC(=O)C(N)C[S][Sn]([CH3])([CH3])[Cl] (stereo unspecified) | > 100 µM | > 100 µM | > 100 µM | > 100 | > 100 µM | > 100 µM | – | > 100 µM | > 100 | – | – | > 84.9 µM | > 100 µM | > 65.2 µM | > 100 | > 100 µM | – | > 100 | > 100 | > 100
COc1ccc([N+](=O)[O-])c2c(NCCCN(C)C)c3ccccc3nc12 | 2.17 µM | 0.509 µM | 1.39 µM | – | 0.0727 µM | 0.257 µM | 0.0733 µM | 0.253 µM | – | – | 3.95 µM | – | – | – | – | – | – | – | – | –
COC(=O)CCc1cc(OC)c2c(c1)C(C(=O)OC)C(c1ccc(OC)c(OC)c1)O2 (stereo unspecified) | > 100 µM | > 100 µM | > 100 µM | – | > 100 µM | > 100 µM | > 100 µM | > 100 µM | – | – | > 100 µM | > 100 µM and 22.3 µM | > 100 µM and 19.6 µM | 65.1 µM and 7.2 µM | – | > 100 µM and 46.4 µM | > 100 | – | – | –
O=C(O[C@H]1CN[C@H](C#Cc2cc3ncnc(Nc4ccc5c(ccn5Cc5cc(F)ccc5F)c4)c3s2)C1)N1CCOCC1 | 13.7 µM | 9.25 µM | > 25 µM | – | 7.35 µM | 14 µM | 5.2 µM | 3.32 µM | – | 0.206 | 7.1 µM | 4.65 µM | 4.57 µM | 6.1 µM | 3.56 | 5.17 µM | 0.765 | 0.413 | – | –
